Measured values taken from US10723711B2, “1,1,1-trifluoro-3-hydroxypropan-2-yl carbamate derivatives and 1,1,1-trifluoro-4-hydroxybutan-2-yl carbamate derivatives as MAGL inhibitors” (PFIZER INC., priority 2015, dated 2020).
Structures can show the parent of a compound that is named as a salt. Where two headings read alike, the source gives them in different places.

Target: T1, human recombinant Monoacylglycerol Lipase (Homo sapiens, UniProt Q99685)
T1 sequence (Q99685 1-303): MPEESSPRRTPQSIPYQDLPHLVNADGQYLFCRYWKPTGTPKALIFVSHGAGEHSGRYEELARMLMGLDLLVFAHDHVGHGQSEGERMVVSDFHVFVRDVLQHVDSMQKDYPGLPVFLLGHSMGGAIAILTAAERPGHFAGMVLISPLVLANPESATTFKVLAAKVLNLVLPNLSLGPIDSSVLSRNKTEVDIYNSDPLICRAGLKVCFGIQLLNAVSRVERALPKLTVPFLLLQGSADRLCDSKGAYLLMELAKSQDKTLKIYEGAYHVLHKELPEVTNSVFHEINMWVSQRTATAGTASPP
Assay: MAGL inhibition enzymatic assay, fluorogenic substrate 7-HCA, IC50 at T=0 min or after 30 minute incubation (T=30 min)
Format: biochemical
Settings: geometric mean of 2-4 determinations unless otherwise indicated
Protocol: An equal volume of 7-HCA in assay buffer with 10% DMSO was added either immediately (T=0 min) or after a 30 minute incubation (T=30 min) to initiate the reaction. […] After these dilutions, the final concentration of the test compound ranged from 3 μM to 0.03 nM. […] IC50 values were generated based on a four parameter fit model using ABASE software from IDBS.

[1] = T = 0 min (substrate added immediately), read-out: MAGL (T = 0 min) IC50
[2] = T = 30 min (30 minute incubation), read-out: MAGL (T = 30 min) IC50

SMILES | IC50 [1] [nM] | IC50 [2] [nM]
O=C(O[C@H](CO)C(F)(F)F)N1CCC2(CCCN(Cc3ccc(F)cc3)C2)CC1 [Example 41] | 1580 | 166
CN(C1COC2(CCN(C(=O)O[C@H](CO)C(F)(F)F)CC2)C1)S(=O)(=O)C1CCOCC1 (single isomer, unassigned) [Example 116] | 986 | 84
O=C(O[C@H](CO)C(F)(F)F)N1CCC2(CC1)CN(S(=O)(=O)CCc1ccccn1)CCO2 [Example 55] | 447 | 43
O=C1COC2(CCN(C(=O)O[C@H](CO)C(F)(F)F)CC2)CN1Cc1ccc(F)cc1 [Example 17, (2R)-1,1,1-Trifluoro-3-hydroxypropan-2-yl 4-(4-fluorobenzyl)-3-oxo-1-oxa-4,9-diazaspiro[5.5]undecane-9-carboxylate] | 951 | 110
CN(C(=O)c1ccccn1)[C@H]1COC2(CCN(C(=O)O[C@H](CO)C(F)(F)F)CC2)C1 [Example 146] | 539 | 48
O=C(O[C@H](CO)C(F)(F)F)N1CCN(Cc2ccc(F)cc2)CC1 [Example 25, (2R)-1,1,1-trifluoro-3-hydroxypropan-2-yl 4-(4-fluorobenzyl)piperazine-1-carboxylate] | 794 | 71
O=C(O[C@H](CO)C(F)(F)F)N1C[C@@H]2CN(c3cc(C4CC4)ccn3)C[C@@H]2C1 [Example 48] | > 3000 | 926
O=C(O[C@H](CO)C(F)(F)F)N1C[C@@H]2CN(S(=O)(=O)c3ccc(F)c(F)c3)C[C@@H]2C1 [Example 13, (2R)-1,1,1-Trifluoro-3-hydroxypropan-2-yl (3aR,6aS)-5-[(3,4-difluorophenyl)sulfonyl]hexahydropyrrolo[3,4-c]pyrrole-2(1H)-carboxylate] | 368 | 35
C[N+](C)(C)CCOP(=O)([O-])OC[C@@H](OC(=O)N1CCC2(CC1)CN(S(=O)(=O)c1ccc(F)cc1)CCO2)C(F)(F)F [Example 90] | > 3000 | > 3000
CN(C1COC2(CCN(C(=O)O[C@H](CO)C(F)(F)F)CC2)C1)S(=O)(=O)C1CCOCC1 (single isomer, unassigned) [Example 117] | 1970 | 153
O=C(O[C@H](CO)C(F)(F)F)N1CCC2(CC1)CC(n1cccn1)CO2 (single isomer, unassigned) [Example 104] | 1860 | 157
O=C(O[C@H](CO)C(F)(F)F)N1C[C@@H]2CN(S(=O)(=O)c3ccc(F)cc3)C[C@@H]2C1 [Example 40] | 494 | 50
Cn1nccc1-c1ccnc(OC2CCN(C(=O)O[C@H](CO)C(F)(F)F)CC2)c1 [Example 64] | 550 | 42
O=C(O[C@H](COP(=O)(O)O)C(F)(F)F)N1CCC2(CC1)CN(S(=O)(=O)c1ccc(F)cc1)CCO2 [Example 33, (2R)-3,3,3-Trifluoro-2-[({4-[(4-fluorophenyl)sulfonyl]-1-oxa-4,9-diazaspiro[5.5]undec-9-yl}carbonyl)oxy]propyl phosphate, (bis)-L-lysine salt] | > 3000 | > 3000
CCOP(=O)(OCC)OC[C@@H](OC(=O)N1CCC2(CC1)CN(S(=O)(=O)c1ccc(F)cc1)CCO2)C(F)(F)F [Example 88] | > 3000 | > 3000
CC1N(S(=O)(=O)c2ccc(F)cc2)CCOC12CCN(C(=O)O[C@H](CO)C(F)(F)F)CC2 (single isomer, unassigned) [Example 70] | 655 | 69
O=C(O[C@H](CO)C(F)(F)F)N1CCC2(CC1)CC(Oc1ccccn1)CO2 (single isomer, unassigned) [Example 129] | > 3000 | 474
O=C(O[C@H](CO)C(F)(F)F)N1CCC(Oc2ccc(CO)cn2)CC1 [Example 75] | 688 | 79
CN(CC1(O)CCN(C(=O)O[C@H](CO)C(F)(F)F)CC1)S(=O)(=O)c1ccccc1 [Example 24, (2R)-1,1,1-Trifluoro-3-hydroxypropan-2-yl 4-hydroxy-4-{[methyl(phenylsulfonyl)amino]methyl}piperidine-1-carboxylate] | 1900 | 195
O=C(O[C@H](CO)C(F)(F)F)N1C2CCC1CN(Cc1ccc(F)cc1)C2 [Example 23, (2R)-1,1,1-Trifluoro-3-hydroxypropan-2-yl 3-(4-fluorobenzyl)-3,8-diazabicyclo[3.2.1]octane-8-carboxylate] | > 1520 | 78
O=C(OC(CO)C(F)(F)F)N1CCC(c2ccn(C3CCOCC3)n2)CC1 (stereo not drawn) [Example 38, 1,1,1-trifluoro-3-hydroxypropan-2-yl 4-[1-(tetrahydro-2H-pyran-4-yl)-1H-pyrazol-3-yl]piperidine-1-carboxylate] | 1470 | 77

Results, then the compound that gave them:

IC50 [1] [nM] | IC50 [2] [nM] | SMILES
220 | 28 | O=C(O[C@H](CO)C(F)(F)F)N1CCC2(CC1)CN(Cc1ccc(F)cc1)C(=O)O2 [Example 72]
484 | 43 | O=C(O[C@H](CO)C(F)(F)F)N1CCC2(CC1)CC(Nc1ccccn1)CO2 (stereo partly drawn) [Example 27, (2R)-1,1,1-Trifluoro-3-hydroxypropan-2-yl 3-(pyridin-2-ylamino)-1-oxa-8-azaspiro[4.5]decane-8-carboxylate]
658 | 83 | Cc1cnc(N2CCOC3(CCN(C(=O)O[C@H](CO)C(F)(F)F)CC3)C2)nc1 [Example 76]
857 | 71 | O=C(O[C@H](CO)C(F)(F)F)N1CCC(CN(Cc2ccc(F)cc2)C2CCOCC2)CC1 [Example 50]
696 | 85 | O=C(O[C@H](CO)C(F)(F)F)N1CCC2(CC1)CN(Cc1ccc(F)cc1)S(=O)(=O)CO2 [Example 28, (2R)-1,1,1-Trifluoro-3-hydroxypropan-2-yl 4-(4-fluorobenzyl)-1-oxa-3-thia-4,9-diazaspiro[5.5]undecane-9-carboxylate 3,3-dioxide]
423 | 50 | O=C(O[C@H](CO)C(F)(F)F)N1CCC2(CC1)CCN(C(=O)c1ccccn1)C2 [Example 128]
> 3000 | 549 | CN([C@H]1COC2(CCN(C(=O)O[C@H](COP(=O)(O)O)C(F)(F)F)CC2)C1)S(=O)(=O)c1ccccc1 [Example 30, (2R)-3,3,3-Trifluoro-2-[({(3R)-3-[methyl(phenylsulfonyl)amino]-1-oxa-8-azaspiro[4.5]dec-8-yl}carbonyl)oxy]propyl phosphate, disodium salt]
> 2750 | 598 | C#Cc1ccc(-n2ccc([C@H]3[C@@H]4CN(C(=O)O[C@@H](CO)C(F)(F)F)C[C@@H]43)n2)cc1 [Example 82]
2340 | 167 | O=C(O[C@H](CO)C(F)(F)F)N1CCC2(CC1)CN(S(=O)(=O)CCCn1ccnc1)CCO2 [Example 56]
524 | 49 | CCC1CN(S(=O)(=O)c2ccc(F)cc2)CC2(CCN(C(=O)O[C@H](CO)C(F)(F)F)CC2)O1 (stereo partly drawn) [Example 18, (2R)-1,1,1-Trifluoro-3-hydroxypropan-2-yl 2-ethyl-4-[(4-fluorophenyl)sulfonyl]-1-oxa-4,9-diazaspiro[5.5]undecane-9-carboxylate]
560 | 46 | O=C(O[C@H](CO)C(F)(F)F)N1CCC(O)(CN(Cc2ccc(F)cc2)C2CCOCC2)CC1 [Example 46]
> 3000 | > 1230 | CN(C1COC2(CCN(C(=O)OC(COP(=O)(O)O)C(F)(F)F)CC2)C1)S(=O)(=O)c1ccccc1 (stereo not drawn) [Example 148]
1840 | 161 | O=C(O[C@H](CO)C(F)(F)F)N1CCC(O)(CNS(=O)(=O)c2ccccc2)CC1 [Example 16, (2R)-1,1,1-Trifluoro-3-hydroxypropan-2-yl 4-hydroxy-4-{[(phenylsulfonyl)amino]methyl}piperidine-1-carboxylate]
1700 | 161 | O=C(O[C@H](CO)C(F)(F)F)N1CCC2(CC1)CN(CC1CCCOC1)CCO2 (single isomer, unassigned) [Example 5]
> 3000 | > 3000 | CN(C)CCOP(=O)(O)OC[C@@H](OC(=O)N1CCC2(CC1)CN(S(=O)(=O)c1ccc(F)cc1)CCO2)C(F)(F)F (mixture of isomers) [Example 89]
359 | 30 | Cn1nccc1-c1cccc(OC2CCN(C(=O)O[C@H](CO)C(F)(F)F)CC2)n1 [Example 65]
392 | 52 | O=C(O[C@H](CO)C(F)(F)F)N1CCC2(CC1)CN(S(=O)(=O)NCc1ccccn1)CCO2 [Example 74]
385 | 32 | O=C(O[C@H](CO)C(F)(F)F)N1CCC2(CC1)CC(c1cccnc1)CO2 (mixture of isomers) [Example 122]
249 | 33 | Cc1cnc(OC2CCN(C(=O)O[C@H](CO)C(F)(F)F)CC2)nc1-c1ccnn1C [Example 58]
485 | 45 | O=C(O[C@H](CO)C(F)(F)F)N1CCC2(CC1)CN(c1ccc(F)cn1)CCO2 [Example 14, (2R)-1,1,1-Trifluoro-3-hydroxypropan-2-yl 4-(5-fluoropyridin-2-yl)-1-oxa-4,9-diazaspiro[5.5]undecane-9-carboxylate]
> 3000 | 654 | O=C(O[C@H](CO)C(F)(F)F)N1CCC2(CC1)CN(S(=O)(=O)C1CCOCC1)CCO2 [Example 49]
